Assay results published in patent US20260297106A1, “SPIROCYCLIC SUBSTITUTED OXOISOINDOLINYL PIPERIDINE-2,6-DIONE COMPOUND” (Bristol-Myers Squibb Company, priority 2023, published 2026).
Like-named read-outs stand apart in the source and are kept apart here.

How the values were obtained:
Format in all cases: cell-based
IKZF1 Ikaros = IKZF1 Ikaros (Homo sapiens, UniProt Q13422+Q96SW2); assay: Human CD8+ T Cell Reprogramming Assay (IKZF1 Ikaros); design: Cryopreserved healthy donor human peripheral blood mononuclear cells; endogenous in cells; host or cells: primary human PBMC, CD8+ T cells read by flow cytometry
Procedure: (§1) Cryopreserved healthy donor human peripheral blood mononuclear cells (PBMC) from healthy donors were thawed and seeded at 500,000 cells/well of 96-well round bottom plates in RPMI 1640 media (Gibco) supplemented with 10% FBS, Pen/Strep (Gibco), MEM-NEAA (Gibco), and sodium pyruvate (Gibco). Cells were treated with titrated doses of compound for 24 hours at 37° C., 5% CO2 before analyzing by flow cytometry.
(§2) For flow cytometry staining, cells were washed twice with flow cytometry staining buffer (Thermo Fisher) and incubated in Human Tru-stain Fc block (Biolegend) for 10 minutes before adding eFluor780 viability dye (Thermo Fisher) and surface marker antibody cocktail containing LD-eFluor780, CD3-BUV-395, CD4-BUV805, CD8-FITC, and CD25-BV605 for 30 minutes at 4° C. Cells were then fixed and permeabilized by incubation with permeabilization buffer (eBioscience FoxP3 buffer set 00-5523-00) for 30 minutes at 4° C. as per the kit manufacturer's instructions. Cells were washed twice with the Perm/Wash buffer supplied in the kit as per the manufacturer's instructions and incubated overnight at 4° C. with an intracellular antibody cocktail comprised of antibodies specific for the transcription factors (i.e., Foxp3-BV421, HELIOS-PE-Cy7, EOS-PE, IKAROS-PECF594, AIOLOS-AF647). Cells were washed twice with Perm/Wash buffer and resuspended in flow cytometry staining buffer (Thermo Fisher) prior to acquisition. Sample acquisition and analysis was performed using a BD LSRFortessa (BD Biosciences) flow cytometer. Single-stain controls for each fluorochrome were prepared using UltraComp eBead Compensation Beads (Thermo Fisher). Data were analyzed using FlowJo version 10 and GraphPad Prism Software.
(§3) Table D-1 lists the maximum observed degradation of the IKZF1 protein and IKZF3 protein as measured in the Human CD8^+ T Cell Reprogramming assay. The results in Table D-1 were rounded to two digits. In the Human CD8^+ T Cell Reprogramming assay, a value of 100% indicated no detectable protein remaining or complete degradation of the protein; and a value of 0% indicated no detectable degradation of the protein by the test compound.

IKZF3 Aiolos [1] = molecular target: T1, IKZF3 Aiolos (Homo sapiens, UniProt Q96SW2+Q9UKT9); assay: Jurkat Cellular Degradation Assay (IKZF3 Aiolos); design: endogenous in cells; conditions: Jurkat cells, 72 h; for Dmax: human, 100% = no detectable protein remaining, read-out: IKZF3 Aiolos max % deg. observed
Procedure: Jurkat cells were plated at 80,000 cells/well in 40 μL RPMI+10% FBS in a 384-well cell culture plate prior to using acoustic dispensing technology for adding a compound of interest. Cell cultures were incubated for 72 h at 37° C. and 5% CO2. In order to facilitate analysis, cell cultures were spun down at 200 rpm for 5 min and the supernatant was discarded. After shaking the plate to dislodge the cell pellet, cells were resuspended in 50 μL of Fixation Buffer (eBioscience FoxP3 buffer set 00-5523-00) for 60 min at room temperature. After centrifuging and discarding the supernatant, cells were permeabilized with 50 μL of Permeabilization buffer (eBioscience FoxP3 buffer set 00-5523-00) for 10 min at room temperature. Following permeabilization, cells were spun down and the supernatant was replaced with 20 μL fluorescently labelled antibodies against Helios, Ikaros and Aiolos or corresponding Isotype controls in 1× Permeabilization buffer (Ikaros-Alexa488 [Biolegend, Cat #368408, 1:50], Helios-PE [CST, Cat #29360, 1:50], Aiolos-Alexa647 [Biolegend, Cat #371106 Biolegend, 1:25]) and staining reactions were incubated for 1 h at room temperature while protected from light. Subsequently, 30 μL of 1× Permeabilization buffer was added prior to centrifuging the cells and discarding the supernatant. Stained cells were resuspended in 25 μL of flow cytometry staining buffer [PBS+0.2% bovine serum albumin (BSA)] and analyzed using an Intellicyt Ique Plus flow cytometer.
Table A-1 lists the maximum observed degradation of the IKZF1 protein, IKZF2 protein, and IKZF3 protein as measured in the Jurkat Cellular Degradation assay. The results in Table A-I were rounded to two digits. In the Jurkat Cellular Degradation assay, a value of 100% indicated no detectable protein remaining or complete degradation of the protein; and a value of 0% indicated no detectable degradation of the protein by the test compound.

IKZF3 Aiolos [2] = molecular target: T1, IKZF3 Aiolos; assay: Human CD8+ T Cell Reprogramming Assay (IKZF3 Aiolos); design: Cryopreserved healthy donor human peripheral blood mononuclear cells; endogenous in cells; host or cells: primary human PBMC, CD8+ T cells read by flow cytometry
Procedure: as §1, §2, §3

[3] = human PBMC, CD8+ T cells, 24 hours, read-out: Maximum Observed Degradation IKZF1 Ikaros
[4] = human, 24 h, Table D-1, read-out: decreased the level of IKZF1 (Ikaros)
[5] = human PBMC, CD8+ T cells, 24 hours, read-out: Maximum Observed Degradation IKZF3 Aiolos
[6] = human PBMC, CD8+ T cells, 24 hours, concentration reducing protein level by 50% vs DMSO

Sequence of IKZF1 Ikaros (Q13422 whole entry): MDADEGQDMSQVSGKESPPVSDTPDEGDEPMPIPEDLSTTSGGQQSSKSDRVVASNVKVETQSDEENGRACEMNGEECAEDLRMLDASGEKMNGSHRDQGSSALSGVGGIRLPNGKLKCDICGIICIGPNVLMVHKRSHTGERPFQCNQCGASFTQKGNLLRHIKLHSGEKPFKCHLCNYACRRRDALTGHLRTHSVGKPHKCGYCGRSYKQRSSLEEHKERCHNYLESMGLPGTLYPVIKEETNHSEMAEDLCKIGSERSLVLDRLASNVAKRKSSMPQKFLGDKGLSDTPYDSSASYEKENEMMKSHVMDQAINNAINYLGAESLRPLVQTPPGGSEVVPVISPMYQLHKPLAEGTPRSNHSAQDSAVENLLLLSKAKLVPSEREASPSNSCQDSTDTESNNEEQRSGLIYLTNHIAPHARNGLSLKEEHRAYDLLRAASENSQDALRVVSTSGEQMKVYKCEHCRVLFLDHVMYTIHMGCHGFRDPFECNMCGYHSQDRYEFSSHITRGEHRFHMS
Sequence of IKZF1 Ikaros (Q96SW2 whole entry): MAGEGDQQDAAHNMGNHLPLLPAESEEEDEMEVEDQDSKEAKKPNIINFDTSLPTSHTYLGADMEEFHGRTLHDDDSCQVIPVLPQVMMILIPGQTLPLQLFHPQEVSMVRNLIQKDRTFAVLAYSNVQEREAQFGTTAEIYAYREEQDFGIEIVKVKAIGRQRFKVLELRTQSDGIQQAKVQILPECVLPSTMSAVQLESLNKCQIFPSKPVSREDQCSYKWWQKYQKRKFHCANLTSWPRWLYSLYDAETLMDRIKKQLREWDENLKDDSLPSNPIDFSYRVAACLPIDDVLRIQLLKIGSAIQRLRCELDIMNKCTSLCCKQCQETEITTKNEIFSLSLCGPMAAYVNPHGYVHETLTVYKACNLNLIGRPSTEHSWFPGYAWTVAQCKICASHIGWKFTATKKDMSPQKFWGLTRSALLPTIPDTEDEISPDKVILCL
Sequence of IKZF1 Ikaros (Q16531 whole entry partner): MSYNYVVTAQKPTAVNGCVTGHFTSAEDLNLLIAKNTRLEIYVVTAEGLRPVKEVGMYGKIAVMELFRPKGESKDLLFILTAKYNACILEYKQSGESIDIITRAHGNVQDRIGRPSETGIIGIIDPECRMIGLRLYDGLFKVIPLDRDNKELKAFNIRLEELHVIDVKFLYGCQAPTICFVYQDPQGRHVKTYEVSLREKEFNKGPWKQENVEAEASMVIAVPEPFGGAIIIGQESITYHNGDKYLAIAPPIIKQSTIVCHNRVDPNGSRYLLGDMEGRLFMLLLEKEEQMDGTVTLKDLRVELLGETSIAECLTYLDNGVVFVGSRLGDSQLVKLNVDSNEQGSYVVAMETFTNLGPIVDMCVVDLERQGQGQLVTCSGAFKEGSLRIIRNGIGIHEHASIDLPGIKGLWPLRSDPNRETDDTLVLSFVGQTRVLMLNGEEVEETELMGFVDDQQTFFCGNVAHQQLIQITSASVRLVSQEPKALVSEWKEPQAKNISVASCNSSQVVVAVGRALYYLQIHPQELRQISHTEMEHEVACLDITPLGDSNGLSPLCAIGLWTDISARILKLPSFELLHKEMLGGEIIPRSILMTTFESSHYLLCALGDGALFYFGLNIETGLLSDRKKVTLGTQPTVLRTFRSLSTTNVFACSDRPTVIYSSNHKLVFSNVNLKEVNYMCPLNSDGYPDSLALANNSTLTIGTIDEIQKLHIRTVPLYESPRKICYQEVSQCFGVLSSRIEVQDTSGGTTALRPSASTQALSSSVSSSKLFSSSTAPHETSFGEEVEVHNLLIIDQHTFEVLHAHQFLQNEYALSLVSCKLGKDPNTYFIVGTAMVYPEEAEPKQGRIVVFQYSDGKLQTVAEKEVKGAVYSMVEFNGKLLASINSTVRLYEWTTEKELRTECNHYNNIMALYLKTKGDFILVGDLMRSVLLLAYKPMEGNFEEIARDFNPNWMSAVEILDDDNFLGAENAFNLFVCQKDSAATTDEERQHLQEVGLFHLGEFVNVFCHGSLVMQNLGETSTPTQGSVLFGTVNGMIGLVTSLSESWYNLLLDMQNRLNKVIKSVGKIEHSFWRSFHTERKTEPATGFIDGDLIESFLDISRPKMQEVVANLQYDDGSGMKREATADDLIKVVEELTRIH
T1 sequence (Q9UKT9 whole entry): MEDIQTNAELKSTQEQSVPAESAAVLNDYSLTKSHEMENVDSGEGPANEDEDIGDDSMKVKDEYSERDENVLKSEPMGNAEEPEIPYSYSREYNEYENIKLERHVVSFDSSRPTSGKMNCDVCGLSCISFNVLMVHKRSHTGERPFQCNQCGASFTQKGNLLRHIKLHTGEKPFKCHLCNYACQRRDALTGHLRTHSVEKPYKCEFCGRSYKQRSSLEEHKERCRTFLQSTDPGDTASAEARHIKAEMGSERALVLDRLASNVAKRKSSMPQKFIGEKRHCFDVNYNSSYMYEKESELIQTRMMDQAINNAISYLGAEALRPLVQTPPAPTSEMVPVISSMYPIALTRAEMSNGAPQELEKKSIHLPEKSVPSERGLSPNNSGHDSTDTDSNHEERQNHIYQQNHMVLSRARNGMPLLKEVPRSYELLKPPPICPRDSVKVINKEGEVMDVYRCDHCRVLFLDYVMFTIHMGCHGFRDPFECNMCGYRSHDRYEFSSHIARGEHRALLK
T1 sequence (Q96SW2 whole entry): as the sequence (Q96SW2 whole entry) above
T1 sequence (Q16531 whole entry partner): as the sequence (Q16531 whole entry partner) above

Compound	Dmax (IKZF1 Ikaros; [3])	Dmax (IKZF1 Ikaros; [4])	Dmax (IKZF3 Aiolos [1])	Dmax (IKZF3 Aiolos [2]; [5])	DC50 (IKZF1 Ikaros; [6])	Dmax (IKZF1 Ikaros; human, 24 h, Table E comparison, from Table D-1, read-out: IKZF1 Ikaros max % deg. observed)	DC50 (IKZF3 Aiolos [1]; concentration reducing protein level by 50% vs DMSO)	DC50 (IKZF3 Aiolos [2]; [6])	Dmax (IKZF3 Aiolos [2]; human, 24 h, Table D-1, read-out: decreased the level of IKZF3 (Aiolos))	Dmax (IKZF3 Aiolos [2]; human, 24 h, Table E comparison, from Table D-1, read-out: IKZF3 Aiolos max % deg. observed)
O=C1CCC(N2Cc3c(ccc(-c4cc(CN5CC(c6ccccc6)C5)ccn4)c3F)C2=O)C(=O)N1 (stereo not drawn) [Comparative Compound A, 3-(4-fluoro-1-oxo-5-(4-((3-phenylazetidin-1-yl)methyl)pyridin-2-yl)isoindolin-2-yl) piperidine-2,6-dione]	20%	≤ 20%	14%	39%	–	–	–	–	–	–
Nc1nc(-c2ccc3c(c2)CN(C2CCC(=O)NC2=O)C3=O)ccc1CN1CC2(CCC2)C1 (stereo not drawn) [Comparative Compound B, 3-(5-(5-((2-azaspiro[3.3]heptan-2-yl)methyl)-6-aminopyridin-2-yl)-1-oxoisoindolin-2-yl) piperidine-2,6-dione]	11%	≤ 20%	28%	2%	–	–	–	–	–	–
Nc1nc(-c2ccc3c(c2F)CN(C2CCC(=O)NC2=O)C3=O)ccc1CN1CC2(CCCOC2)C1 (stereo not drawn) [Example 1, 3-(5-(5-((6-oxa-2-azaspiro[3.5]nonan-2-yl)methyl)-6-aminopyridin-2-yl)-4-fluoro-1-oxoisoindolin-2-yl) piperidine-2,6-dione]	64 to 65%	64 to 65%	33%	62 to 66%	0.029 to 0.043 µM	64 to 65%	> 10 µM	0.023 to 0.035 µM	62 to 66%	62 to 66%
